From article PMC7571127, “Daurichromenic Acid from the Chinese Traditional Medicinal Plant Rhododendron dauricum Inhibits Sphingomyelin Synthase and Aβ Aggregation” (Molecules, 2020)
Like-named read-outs stand apart in the source and are kept apart here.

Tests used:
[1] = target: T1, SMS2 (Homo sapiens, UniProt Q8NHU3); experiment: SMS assay, cell lysate with fluorescent substrate C6-NBD-Cer (SMS2); format: biochemical
T1 construct: expressed in transfected cells; host or cells: ZS/SMS2 cells (sonicated lysate)
T1 sequence (Q8NHU3 1-365): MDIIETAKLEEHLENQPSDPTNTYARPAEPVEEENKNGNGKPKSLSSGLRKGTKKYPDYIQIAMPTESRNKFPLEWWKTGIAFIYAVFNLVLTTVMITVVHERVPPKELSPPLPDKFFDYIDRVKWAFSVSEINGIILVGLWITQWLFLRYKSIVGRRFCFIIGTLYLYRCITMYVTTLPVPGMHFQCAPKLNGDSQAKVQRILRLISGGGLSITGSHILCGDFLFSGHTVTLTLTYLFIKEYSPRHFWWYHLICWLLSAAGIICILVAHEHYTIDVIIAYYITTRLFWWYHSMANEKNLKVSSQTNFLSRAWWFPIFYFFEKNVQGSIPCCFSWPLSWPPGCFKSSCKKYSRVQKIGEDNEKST
Method: (§1) The ability of DCA and its derivatives to inhibit the SMS isozymes SMS1 and SMS2 was evaluated using a cell lysate assay and the fluorescent substrate C6-NBD (4-nitrobenzo-2-oxa-1,3-diazole)-Cer. […] Thus, the carboxylic acid group of DCAs are essential moieties for their inhibition of SMSs. However, the SMS has not been succeeded in its crystallization. Therefore, a direct comparison with the previously isolated SMS inhibitor ginkgolic acid has been examined. […] Further, a previous report concerning the mode of action for Aβ aggregation inhibition for small molecules gave the insight that the crucial role of a hydrophobic-side hydrocarbon chain and an aromatic ring as well as its two hydrophilic functions causes significant interaction with the amyloid.
(§2) ZS/SMS1 and ZS/SMS2 cells (protein concentration 0.1 µg/µL) were diluted in 20 mM Tris-buffer (pH 7.5) and sonicated. A 1 µL aliquot of each compound at the desired concentration was added to 100 µL aliquots of the cell lysates and the solutions were incubated at 37 °C for 30 min. A 1 µL aliquot of C6-NBD-ceramide was added to each solution and the solutions were incubated for 3 h at 37 °C. The reactions were stopped by addition of 400 µL of MeOH/CHCl3 [1/2 (v/v)], and the mixtures were shaken and centrifuged at 1500 rpm for 5 min. The formation of C6-NBD-sphingomyelin was quantified by HPLC determination of its peak area. Inhibitory activity was quantified by a reverse-phase HPLC assay using a JACSO HPLC system, equipped with a PU-2089 Plus and FP-2020 Plus set at λex = 470 nm and λem = 530 nm. A 50 × 4.6 YMC-Pack Diol-120-NP column (5-µm particle size) was used with the mobile phase (IPA/hexane/water) at a flow rate of 1.0 mL/min
(§3) Figure 1 Inhibition of SMS1 and SMS2 activities by (a) DCA (1), (b) derivative (4), (c) derivative (6) and (d) derivative (7). IC50 values were measured using a cell lysate assay. SMS-expressing cell lysates and compounds were incubated for 3 h at 37 °C, and the extracted fluorescent lipids were directly analyzed by HPLC. Each point represents the mean ± SD of triplicate assays.

[2] = target: T2, Aβ42 aggregation (Homo sapiens, UniProt P05067); experiment: Aβ aggregation inhibition, microtiter-scale high-throughput screening (MSHTS) assay; format: biochemical
T2 construct: 30 nM QD-labeled Aβ40 (QDAβ), and 30 μM Aβ42 in PBS
T2 sequence (P05067 672-713 limits assumed): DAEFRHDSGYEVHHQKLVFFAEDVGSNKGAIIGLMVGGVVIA
Method: Alzheimer’s disease (AD) is a multifactorial disease, which is believed to be caused by complex interactions among several contributing patho-mechanisms. The ability of DCA and its derivatives, along with other natural compounds, ginkgolic acids (8, 9) (Figure 2) and malabaicone A–C (10, 11 and 12), to inhibit Aβ42 aggregation was evaluated by microtiter-scale high-throughput screening (MSHTS) assays. EC50 values were measured from inhibition curves, in which the percent SDs of fluorescence intensities were plotted against the concentration of each compound (Figure 3). Here, 30 nM quantum dot amyloid beta (QDAβ) and 30 µM of Aβ were incubated with different concentrations to evaluate the EC50 of all derivatives. […] The inhibitory activities of the other cyclized DCAs and malabaricones were lower (Figure S2).
The aggregation inhibitory activities of plant extracts, fractions, DCA, DCA derivatives, and naturally occurring SMS inhibitors (compounds 8, 9, and 10) were measured using a modified MSHTS system. Various concentrations of each were incubated with 30 nM QD-labeled Aβ40 (QDAβ), and 30 μM Aβ42 in PBS containing 5% EtOH and 3% DMSO at 37 °C for 24 h in 1536-well plates (782096, Greiner) (Kremsmünster, Austria). The center of each well as viewed with an inverted fluorescence microscope (TE2000, Nikon)) (Tokyo, Japan) equipped with a color CCD camera (DP72, Olympus) (Tokyo, Japan), and the central region of each well were measured with ImageJ software Ver 1.53b (NIH) to determine the standard deviations (SD) of fluorescence intensities of 40,000 pixels (200 × 200 pixels: 320 × 320 μm). The SD values, which were approximately proportional to the amount of aggregates, were plotted against the concentrations of the putative inhibitors to generate inhibition curves, and the EC50 values were determined.
Figure 3 (A) Inhibition of Aβ42 aggregation by DCA, its derivatives, and natural sphingomyelin synthase inhibitors, as shown by incubation of 30 nM QDAβ and 30 µM Aβ with various concentrations of these compounds. (B) Estimation of EC50 values from inhibition curves, in which the percent SDs of fluorescence intensities were plotted against the concentrations of these compounds.

[3] = target: T3, SMS1 (Homo sapiens, UniProt Q86VZ5); experiment: SMS assay, cell lysate with fluorescent substrate C6-NBD-Cer (SMS1); format: biochemical
T3 construct: expressed in transfected cells; host or cells: ZS/SMS1 cells (sonicated lysate)
T3 sequence (Q86VZ5 1-413): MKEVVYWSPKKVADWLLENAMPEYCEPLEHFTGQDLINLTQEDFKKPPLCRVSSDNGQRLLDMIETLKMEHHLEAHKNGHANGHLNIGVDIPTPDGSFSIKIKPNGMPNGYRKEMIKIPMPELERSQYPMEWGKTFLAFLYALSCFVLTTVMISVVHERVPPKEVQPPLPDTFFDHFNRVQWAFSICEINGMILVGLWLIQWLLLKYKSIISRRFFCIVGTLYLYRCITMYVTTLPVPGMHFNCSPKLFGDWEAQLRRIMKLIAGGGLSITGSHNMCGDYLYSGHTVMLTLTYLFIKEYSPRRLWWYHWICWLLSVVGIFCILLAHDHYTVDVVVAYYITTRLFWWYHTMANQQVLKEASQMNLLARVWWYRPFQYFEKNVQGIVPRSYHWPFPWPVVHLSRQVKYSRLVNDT
Method: as §1, §2, §3

[4] = target: T2, Aβ42 aggregation; design: method as in PMID 23991168; settings: comparison value; read-out: EC50 of Aβ aggregation inhibition (MSHTS); cited from earlier work
[5] = system: sphingomyelin synthase; experiment: SMS activity, isozyme not specified (abstract value; fractions of Rhododendron dauricum extract); format: biochemical; settings: isozyme not stated, read-out: IC50, inhibition of sphingomyelin synthase activity
[6] = ZS/SMS2 cell lysate, C6-NBD-ceramide, 3 h at 37 °C, HPLC, read-out: SMS Assay (SMS2) IC50
[7] = 30 nM QDAβ and 30 µM Aβ42, 37 °C, 24 h, read-out: MHSTS Assay EC50 (inhibition of Aβ42 aggregation)
[8] = ZS/SMS1 cell lysate, C6-NBD-ceramide, 3 h at 37 °C, HPLC, read-out: SMS Assay (SMS1) IC50
[9] = ZS/SMS2 cell lysate, C6-NBD-ceramide, 3 h at 37 °C, HPLC
[10] = ZS/SMS1 cell lysate, C6-NBD-ceramide, 3 h at 37 °C, HPLC

| IC50 [1, 6] [µM] | EC50 [2, 7] [µM] | IC50 [3, 8] [µM] | SMS Assay (SMS2) IC50 [1, 9] | SMS Assay (SMS1) IC50 [3, 10] | Compound | further results |
| --- | --- | --- | --- | --- | --- | --- |
| 5 | 238 | 4 |  |  | Cc1cc2c(c(O)c1C(=O)O)CC1[C@]3(C)CCCC(C)(C)[C@H]3CC[C@]1(C)O2 (single isomer, unassigned; (-)) [Compound 7, (−) Hongoquercin A] |  |
| 7 |  | 9 |  |  | Cc1cc2c(c(O)c1C(=O)O)C=C1[C@]3(C)CCCC(C)(C)[C@H]3CC[C@]1(C)O2 [Compound 6, (−)-(5R,8S,10R)-9,15-Didehydro hongoquercin A] |  |
|  |  |  |  |  | O=C(/C=C/c1ccc(O)c(O)c1)O[C@H](Cc1ccc(O)c(O)c1)C(=O)O [rosmarinic acid] | EC50 [4]: 60 µM |
|  |  |  | inactive | inactive | COC(=O)c1c(C)cc2c(c1O)C=C1[C@]3(C)CCCC(C)(C)[C@H]3CC[C@]1(C)O2 [Compound 5, (−)-(5R,8S,10R)-9,15-Didehydro hongoquercin A methyl ester] |  |
| 1.5 | 149 | 1.5 |  |  | CCCCCC/C=C\CCCCCCCc1cccc(O)c1C(=O)O [Compound 8, ginkgolic acid, reference compound] |  |
| 2 | 296 | 2 |  |  | CCCCCCCCCCCCCCCc1cccc(O)c1C(=O)O [Compound 9, ginkgolic acid, reference compound] |  |
|  |  |  |  |  | CC(C)=CCC/C(C)=C/CC[C@@]1(C)C=Cc2c(cc(C)c(C(=O)O)c2O)O1 [Compound 1, Daurichromenic acid] | IC50 [5]: 4 µM; IC50 [1]: 4 µM; EC50 [2]: 57 µM; IC50 [3]: 7 µM |
|  |  |  | inactive | inactive | COC(=O)c1c(C)cc2c(c1OC)C=C[C@](C)(CC/C=C(\C)CCC=C(C)C)O2 [Compound 3, Methyl(S,E)-2-(4,8-dimethylnona-3,7-dien-1-yl)-5-methoxy-2,7-dimethyl-2H-chromene-6 carboxylate] |  |
|  |  |  | inactive | inactive | COC(=O)c1c(C)cc2c(c1O)C=C[C@](C)(CC/C=C(\C)CCC=C(C)C)O2 [Compound 2, Methyl Ester of DCA] |  |

| Compound | IC50 [1, 6] [µM] | EC50 [2, 7] [µM] | IC50 [3, 8] [µM] | SMS Assay (SMS2) IC50 [1, 9] | SMS Assay (SMS1) IC50 [3, 10] | further results |
| --- | --- | --- | --- | --- | --- | --- |
| COc1c2c(cc(C)c1C(=O)O)O[C@@](C)(CC/C=C(\C)CCC=C(C)C)C=C2 [Compound 4, (S,E)-2-(4,8-Dimethylnona-3,7-dien-1-yl)-5-methoxy-2,7-dimethyl-2H-chromene-6-carboxylic acid] | 10 | 74 | 17 |  |  |  |
